Four compounds from patent US20070203220A1, “Inhibitors Of PAI-1 For Treatment Of Muscular Conditions” (Wyeth, priority 2006, published 2007) can be followed below.

As usually defined, the melting point is the temperature, or range, at which the solid turns liquid.

One data set deals with mdx mice. Put plainly: mdx mouse model of muscular dystrophy, drug in rodent chow for 9 months, muscle and body weights. Format: in vivo. To be noted: female mdx mice. The text has this: The mdx mouse is a genetic model of Duchenne and Becker muscular dystrophies, providing a model system of muscle degeneration with aberrant regeneration. In this model, a nonsense mutation in the dystrophin gene results in the absence of dystrophin from the sarcolemma, and subsequent muscle fiber necrosis. Conversely, mice deficient in plasminogen activator inhibitor-1 have improved skeletal muscle regeneration. It was hypothesized that a small molecule PAI-1 inhibitor, such as, for example {1-Benzyl-5-[4-(trifluoromethoxy)phenyl]-1H-indol-3-yl}(oxo)acetic acid could potentially produce beneficial effects on the skeletal muscle of mdx mice.
Female mdx mice were purchased from a commercial vendor, and divided into 2 groups of equal body weight. {1-Benzyl-5-[4-(trifluoromethoxy)phenyl]-1H-indol-3-yl}(oxo)acetic acid was formulated into rodent chow at a concentration of 1 mg of drug per 1 gram of food (1 mg/g), and this mixture was formed into food pellets. A standard, pelleted rodent chow was used as the control diet. One group of mice received the drug-containing diet, while the other group received the control diet ad libitum. Each diet was coded, and the animal technicians remained blinded to the composition of the diets throughout the study.
Eight mice received either the control or drug-containing diet for 9 months. At the end of the study, the mice were killed, and muscle and body weights were measured. There was no change in body weight between groups (28.1±0.45 g for drug-treated vs. 28.3±0.69 g for Control). […] Because muscular dystrophy is a wasting disease, changes in muscle weight are routinely expressed per unit of body weight in preclinical studies. Therefore, the individual weight of each gastrocnemius muscle (mg) was expressed relative to total body weight (g). […] In drug-treated mice, muscle weight per unit of body weight was 5.02±0.13 mg/g, while in mice on the control diet, this value was 4.56 mg/g±0.20 (p=0.07).

Consider `Cn1cc(C(=O)C(=O)O)c2ccc(-c3ccc(OC(F)(F)F)cc3)cc21`, for which the melting point is 233 to 235 °C (dec.). For the compound `CC(=O)c1ccc(-c2ccc3c(c2)c(C(=O)C(=O)O)cn3Cc2ccccc2)cc1`, the melting point was 213 to 214 °C (dec.).

For `Cc1ccc(Cn2cc(C(=O)C(=O)O)c3cc(-c4ccccc4)ccc32)cc1`, the melting point lay in the range of 195 to 196 °C. Regarding `O=C(O)C(=O)c1cn(Cc2ccccc2)c2ccc(-c3ccc(OC(F)(F)F)cc3)cc12` [{1-Benzyl-5-[4-(trifluoromethoxy)phenyl]-1H-indol-3-yl}(oxo)acetic acid], the “difference in group means of gastrocnemius muscle weight, drug-treated vs control” value in the data set with mdx mice (drug in chow 1 mg/g) is listed as 8.6%. For the same compound, the “muscle weight per unit of body weight (gastrocnemius)” value with mdx mice (drug in chow 1 mg/g ad libitum, p=0.07 vs control) was 5.02 ± 0.13 mg/g. Also, the gastrocnemius muscle weight in the data set with mdx mice (drug in chow 1 mg/g ad libitum, p=0.11 vs control) was 141.0 ± 4.1 mg.
